“Also recorded” adds a separate entry of the source.
How the values were obtained:
Format in all cases: cell-based
[1] = test system: HL-60 cells; assay: Mobilization of intracellular Ca2+ after pertussis toxin pretreatment; details: pretreatment 20 hrs with 100 ng/ml pertussis toxin
Method: Increases in [Ca^2+ ]i arising from the mobilization of intracellular Ca^2+ were inhibited by pretreatment for 20 hrs with 100 ng/ml pertussis toxin (PTx).

[2] = test system: HL-60 cells differentiated with dibutryl cAMP; assay: Mobilization of intracellular Ca2+ in fura-2 loaded differentiated HL-60 cells; details: differentiated HL-60 cells loaded with fura-2
Method: The three peptides of the present invention isolated from the venom of the spider Geolycosa riogrande, designated Geolycosa 17, 15a and 15b, contain linear sequences of 25 (Geolycosa 17) or 27 (Geolycosa 15a and 15b) amino acids, lack cysteine, and are enriched in lysine. […] When tested at concentrations of 0.5 to 2 μM, all three peptides caused rapid and transient increases in [Ca^2+ ]i that persisted in the absence of extracellular Ca^2+ but were blocked when cellular stores of Ca^2+ were depleted by pretreatment with ionomycin.

[3] = test system: HL-60 cells
Method: Uke the effect of many other pore formers, the effects of these peptides on EB uptake were augmented when the total extracellular divalent cation concentration was reduced to 0.1 mM and inhibited when extracellular Mg^2+ was increased from 1 to 5 mM.
The ability of Geolycosa 17 to form pores in membranes was tested in T3 fibroblasts, parathyroid cells, and differentiated and undifferentiated HL60 cells. Pore formation was assessed by measuring the permeability of the cells to ethidium bromide (EB, MW 394). Concentrations of Geolycosa 17 greater than 7.5 μM increased EB uptake in all cells tested.

Compound: Nc1ncnc2c1ncn2[C@@H]1O[C@H](COP(=O)(O)OP(=O)(O)OP(=O)(O)O)[C@@H](O)[C@H]1O [ATP, reference compound]
- effect of PTx pretreatment on mobilization of intracellular Ca2+ [1]: blocked

Compound: CC[C@H](C)[C@H](NC(=O)CN)C(=O)NCC(=O)N[C@@H](C)C(=O)N[C@H](C(=O)N[C@@H](CC(C)C)C(=O)N[C@@H](CCCCN)C(=O)N[C@H](C(=O)N[C@@H](CC(C)C)C(=O)N[C@H](C(=O)N[C@H](C(=O)NCC(=O)N[C@@H](CC(C)C)C(=O)N1CCC[C@H]1C(=O)N[C@@H](C)C(=O)N[C@@H](CC(C)C)C(=O)N[C@H](C(=O)N[C@@H](CO)C(=O)N[C@@H](Cc1c[nH]c2ccccc12)C(=O)N[C@H](C(=O)N[C@@H](CCCCN)C(=O)N[C@@H](CCCNC(=N)N)C(=O)N[C@@H](CCCCN)C(=O)N[C@@H](CCCNC(=N)N)C(=O)N[C@@H](CCC(N)=O)C(=O)N[C@@H](CCC(N)=O)C(N)=O)[C@@H](C)CC)[C@@H](C)CC)[C@@H](C)O)[C@@H](C)O)C(C)C)C(C)C [melittin, reference compound]
- mobilization of intracellular Ca2+ [2]: caused the mobilization of intracellular Ca^2+
- EB uptake / pore formation at concentrations effective in mobilizing intracellular Ca2+ [3]: caused significant pore formation
- permeabilization of cells indexed by uptake of ethidium bromide (EB) [3]: permeabilized HL-60 cells
- rank order of potency for causing permeabilization of HL-60 cells [3]: melittin>Geolycosa 15b>Geolycosa 17=Geolycosa 15a>mastoparan
- EC50 ([3]; EB uptake, read-out: EC50 for causing pore formation): ~250 nM

Compound: Geolycosa 15a (KIKWLKAMKSIAKFIAKKQMKKHLGGE)
- mobilization of intracellular Ca2+ [2]: mobilize intracellular Ca^2+
- EB uptake / pore formation at concentrations effective in mobilizing intracellular Ca2+ [3]: even less prone to cause increases in EB uptake
- permeabilization of cells indexed by uptake of ethidium bromide (EB) [3]: permeabilized cells
- potency relative to mastoparan [3]: about twice as potent
- rank order of potency for causing permeabilization of HL-60 cells [3]: melittin>Geolycosa 15b>Geolycosa 17=Geolycosa 15a>mastoparan
- effect of PTx on pore formation ([3]; pertussis toxin pretreatment): without effect
- effect of PTx pretreatment on mobilization of intracellular Ca2+ [1]: blocks

Compound: Geolycosa 15b (KIKWFKTMKSIAKFIAKEQMKKHLKGE)
- mobilization of intracellular Ca2+ [2]: mobilize intracellular Ca^2+; also recorded: caused the mobilization of intracellular Ca^2+
- EB uptake / pore formation at concentrations effective in mobilizing intracellular Ca2+ [3]: little uptake of EB
- EB uptake at slightly higher concentrations than those mobilizing Ca2+ [3]: a large uptake of EB
- permeabilization of cells indexed by uptake of ethidium bromide (EB) [3]: permeabilized cells
- potency relative to Geolycosa 15a and Geolycosa 17 [3]: about twice as potent
- rank order of potency for causing permeabilization of HL-60 cells [3]: melittin>Geolycosa 15b>Geolycosa 17=Geolycosa 15a>mastoparan
- effect of PTx pretreatment on mobilization of intracellular Ca2+ [1]: failed to affect

From US5756462A, “Pore forming peptides from Geolycosa riogrande” (priority 1996, dated 1998)
